What is called IC50 is the concentration needed to halve the response being measured. The term EC50 denotes the concentration giving half of the maximal effect. The term CC50 denotes the concentration giving 50% cytotoxicity.

The source made the active and inactive calls.

For eleven compounds, IC50, EC50 and CC50 results are on record in ChEMBL document CHEMBL1201862, “PubChem BioAssay data set” (2004).

The target in assay [1] is Heat shock cognate 71 kDa protein (Homo sapiens, UniProt P11142). The assay can be described thus: In Vitro Hsc70 Dose Response Fluorescence Polarization Assay. [Related pubchem assays: 1072 ]. Background: Polarisation of emitted light reports the rotation of a fluorescent probe.
Assay [2] addresses Glyceraldehyde-3-phosphate dehydrogenase (Homo sapiens, UniProt P04406).
The next assay deals with T1, Bcl-2-like protein 10 (Homo sapiens, UniProt Q9HD36).
T1 sequence (Q9HD36 whole entry): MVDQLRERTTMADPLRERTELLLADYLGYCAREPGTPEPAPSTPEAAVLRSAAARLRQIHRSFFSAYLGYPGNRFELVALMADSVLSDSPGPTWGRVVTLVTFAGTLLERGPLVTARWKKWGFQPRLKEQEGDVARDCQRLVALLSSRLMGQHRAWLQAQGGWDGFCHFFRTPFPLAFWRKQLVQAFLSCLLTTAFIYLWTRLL
The assay can be described thus: Biochemical TR3 FP assay of Bcl-B inhibitor potency, EC50 (AID 1243). It counts as functional.

Assay [3] can be described thus: Counterscreen for IDE inhibitors: Luminescence-based cell-based high throughput dose response assay to identify compounds that are cytotoxic to HEK cells. [Related pubchem assays: 434962 (Primary screen (IDE inhibitors in singlicate)), 449730 (Counterscreen (Cytotoxicity in triplicate)), 435028 (Confirmation (IDE inhibitors in triplicate)) …. Type of assay: functional. The following applies: HEK293. (A counterscreen serves to expose hits that act by an unwanted route or on another target.)

For another assay, the target named is T2, Insulin-degrading enzyme (Homo sapiens, UniProt P14735).
T2 sequence (P14735 whole entry): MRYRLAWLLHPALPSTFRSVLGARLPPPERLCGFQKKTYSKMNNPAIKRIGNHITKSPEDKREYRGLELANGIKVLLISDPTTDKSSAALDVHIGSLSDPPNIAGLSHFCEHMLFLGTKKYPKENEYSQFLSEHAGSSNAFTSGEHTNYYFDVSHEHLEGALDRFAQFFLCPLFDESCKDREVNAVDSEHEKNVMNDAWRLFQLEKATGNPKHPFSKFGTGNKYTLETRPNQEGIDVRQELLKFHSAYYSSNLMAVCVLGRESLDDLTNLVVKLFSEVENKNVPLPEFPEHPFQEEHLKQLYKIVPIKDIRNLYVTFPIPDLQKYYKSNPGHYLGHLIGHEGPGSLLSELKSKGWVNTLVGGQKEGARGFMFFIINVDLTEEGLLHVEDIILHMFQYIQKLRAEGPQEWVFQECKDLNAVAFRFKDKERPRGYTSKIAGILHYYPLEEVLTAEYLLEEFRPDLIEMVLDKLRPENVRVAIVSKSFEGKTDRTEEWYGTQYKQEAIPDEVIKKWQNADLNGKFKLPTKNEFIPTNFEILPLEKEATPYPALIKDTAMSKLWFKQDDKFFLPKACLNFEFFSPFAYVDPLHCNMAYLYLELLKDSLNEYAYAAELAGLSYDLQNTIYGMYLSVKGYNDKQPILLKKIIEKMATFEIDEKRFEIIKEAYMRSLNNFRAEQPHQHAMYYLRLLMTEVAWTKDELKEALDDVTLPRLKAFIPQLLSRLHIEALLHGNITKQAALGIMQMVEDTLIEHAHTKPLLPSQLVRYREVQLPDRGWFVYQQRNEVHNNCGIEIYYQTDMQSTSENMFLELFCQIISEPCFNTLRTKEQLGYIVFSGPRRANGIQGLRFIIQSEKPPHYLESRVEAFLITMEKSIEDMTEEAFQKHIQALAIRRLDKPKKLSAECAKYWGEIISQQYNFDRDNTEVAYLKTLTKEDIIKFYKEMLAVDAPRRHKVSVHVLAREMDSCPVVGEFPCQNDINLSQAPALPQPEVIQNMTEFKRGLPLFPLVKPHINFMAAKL
The assay can be described thus: Dose Response: Fluorescence polarization-based cell-based high throughput dose response assay for inhibitors of insulin-degrading enzyme (IDE). [Related pubchem assays: 434962 (Primary screen (IDE inhibitors in singlicate)), 449730 (Counterscreen (Cytotoxicity in triplicate)), 435028 (Confirmation (IDE inhibitors in triplicate)), 434984 (Summary …. Type of assay: functional.

Assay [4] deals with Melanin-concentrating hormone receptor 1 (Homo sapiens, UniProt Q99705). The assay can be described thus: Fluorescence-based counterscreen for antagonists of the G-protein coupled receptor 7 (GPR7): cell-based high throughput dose response assay to identify antagonists of the melanin-concentrating hormone receptor 1 (MCHR1). It counts as functional.
The target of the next assay is Procathepsin L (Homo sapiens, UniProt P07711).
A further assay addresses Aspartyl aminopeptidase (Plasmodium falciparum 3D7, UniProt Q8I2J3).
Assay [5] deals with Alkaline phosphatase, placental type (Homo sapiens, UniProt P05187). The assay can be described thus: PLAP enzyme inhibitors, confirmation, biochemical, luminescence (AID 1512). It counts as functional.
Another assay has as its target T3, Estrogen receptor (Homo sapiens, UniProt P03372).
T3 sequence (P03372 whole entry): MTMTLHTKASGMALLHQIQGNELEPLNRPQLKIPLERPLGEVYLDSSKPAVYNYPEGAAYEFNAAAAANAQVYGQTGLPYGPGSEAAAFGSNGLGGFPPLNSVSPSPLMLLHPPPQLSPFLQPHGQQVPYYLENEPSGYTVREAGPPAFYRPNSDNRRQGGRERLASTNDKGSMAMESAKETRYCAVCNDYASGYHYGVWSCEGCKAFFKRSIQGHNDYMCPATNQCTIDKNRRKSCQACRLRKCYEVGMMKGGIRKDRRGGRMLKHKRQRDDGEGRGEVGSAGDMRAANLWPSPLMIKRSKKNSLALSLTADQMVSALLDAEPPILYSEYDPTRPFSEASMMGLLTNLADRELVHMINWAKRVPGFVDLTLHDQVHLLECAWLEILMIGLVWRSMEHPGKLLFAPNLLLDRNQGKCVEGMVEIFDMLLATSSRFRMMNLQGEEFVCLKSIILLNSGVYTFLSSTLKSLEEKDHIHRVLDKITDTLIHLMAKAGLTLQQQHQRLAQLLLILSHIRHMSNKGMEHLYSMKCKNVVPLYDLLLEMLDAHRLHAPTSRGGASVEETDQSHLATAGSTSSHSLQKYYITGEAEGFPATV
The assay can be described thus: ERα–SRC-3 coactivator interaction inhibitors, confirmation, orthogonal assay, biochemical, ELISA, streptavidin-HRP readout (AID 1079). On the technique in general: An ELISA detects its analyte on a solid surface through an enzyme-linked reagent.

Assay [6] deals with Muscarinic acetylcholine receptor M4 (Rattus norvegicus, UniProt P08485). The assay can be described thus: Discovery of novel allosteric modulators of the M1 muscarinic receptor: Agonist NMS competition at M4. [Related pubchem assays: 626, 1488, 1741 ]. Type of assay: functional.
Assay [7] concerns the target Muscarinic acetylcholine receptor M2 (Homo sapiens, UniProt P08172). The assay can be described thus: Discovery of novel allosteric modulators of the M1 muscarinic receptor: Agonist NMS competition at M2. [Related pubchem assays: 626 (Discovery of Novel Allosteric Modulators of the M1 Muscarinic Receptor: Agonist Primary Screen), 1488 (Discovery of novel allosteric modulators of the M1 muscarinic receptor: Agonist Confirmation Assay)]. Type of assay: functional.

The target of assay [8] is Muscarinic acetylcholine receptor M3 (Homo sapiens, UniProt P20309). The assay can be described thus: Discovery of novel allosteric modulators of the M1 muscarinic receptor: Agonist NMS competition at M3. [Related pubchem assays: 1488 (Discovery of novel allosteric modulators of the M1 muscarinic receptor: Agonist Confirmation Assay), 626 (Discovery of Novel Allosteric Modulators of the M1 Muscarinic Receptor: Agonist Primary Screen)]. It counts as functional.

Assay [9] concerns the target Muscarinic acetylcholine receptor M5 (Homo sapiens, UniProt P08912). The assay can be described thus: Discovery of novel allosteric modulators of the M1 muscarinic receptor: Agonist NMS competition at M5. [Related pubchem assays: 1488 (Discovery of novel allosteric modulators of the M1 muscarinic receptor: Agonist Confirmation Assay), 626 (Discovery of Novel Allosteric Modulators of the M1 Muscarinic Receptor: Agonist Primary Screen)]. Type of assay: functional.

Assay [10] has as its target Muscarinic acetylcholine receptor M1 (Rattus norvegicus, UniProt P08482). The assay can be described thus: Discovery of novel allosteric modulators of the M1 muscarinic receptor: Agonist NMS binding at M1. [Related pubchem assays: 626 ].
The target of a further assay is Protein Rev (Human immunodeficiency virus type 1 group M subtype B (isolate WMJ22)(HIV-1), UniProt P05866). The assay can be described thus: HIV-1 Rev-RRE RNA binding disruptors, dose response, biochemical, protein-RNA interaction (AID 842). Details: species or system Human immunodeficiency virus 1.
Assay [11] in a line: polyadenylation inhibitors in yeast reporter, dose response, luminescence, S. cerevisiae SKY197-pL101 (AID 2525). Type of assay: functional, cell-based.
The nature of assay [12]: HIV-1 Env-mediated cell fusion inhibitors, dose response, CCR5-tropic Env (AID 2279). It counts as functional.
The next assay relates to Vero. The assay can be described thus: Vero cell cytotoxicity, cytotoxicity control for flavivirus capping enzyme inhibitors (AID 588742). It counts as functional. The note with it: Chlorocebus sabaeus.
In a further assay the target is Genome polyprotein (dengue virus type 2, UniProt P29990). The assay can be described thus: Dengue-2 NS5 methyltransferase inhibitors, primary screen, biochemical, confirmation dose response (AID 588689). It counts as functional.
Assay [13] relates to Streptococcus. The assay can be described thus: Luminescence Microorganism-Based Dose Response Follow up to Identify Compounds Cytotoxic to Streptococcus. [Related pubchem assays: 1677 (Project Summary), 1915, 1914, 1902 (Retest at Dose), 1900 (Counter Screen), 1662 (Primary HTS)]. It counts as functional, organism-based.
A further assay deals with T4, Streptokinase A (Streptococcus pyogenes serotype M1, UniProt P10520).
T4 sequence (P10520 whole entry): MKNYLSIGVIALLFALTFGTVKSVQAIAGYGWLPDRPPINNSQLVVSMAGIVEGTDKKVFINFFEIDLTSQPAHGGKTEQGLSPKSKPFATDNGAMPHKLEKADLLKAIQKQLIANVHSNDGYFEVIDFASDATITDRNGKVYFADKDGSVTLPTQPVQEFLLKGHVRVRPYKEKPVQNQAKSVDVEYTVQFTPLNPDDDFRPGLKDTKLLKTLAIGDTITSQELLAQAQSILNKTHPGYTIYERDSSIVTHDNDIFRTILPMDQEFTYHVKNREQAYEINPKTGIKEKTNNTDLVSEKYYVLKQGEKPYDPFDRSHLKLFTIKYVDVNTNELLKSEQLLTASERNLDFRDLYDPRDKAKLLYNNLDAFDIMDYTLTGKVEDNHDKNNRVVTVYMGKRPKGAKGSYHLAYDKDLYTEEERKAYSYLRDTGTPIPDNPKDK
The assay can be described thus: S. pyogenes streptokinase expression inhibitors, potency, dose response, plasminogen activation absorbance, OD405 (AID 1914).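 Note: secreted streptokinase activity via plasminogen activation per viability signal from cell pellet.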 Type of assay: functional, Streptococcus pyogenes M1 GAS.

Assay [14] concerns Streptococcus sp. 'group A'. The assay can be described thus: growth inhibition of control SK(-) GAS strain, dose response, counter-screen for streptokinase expression inhibitor project, luminescence, kanamycin, BacTiterGlo, confirmation (AID 1900). It counts as functional, organism-based.
Assay [15] has as its system Streptococcus. The assay can be described thus: Group A Streptococcus viability loss, dose response, counter-screen for streptokinase expression inhibitor project, luminescence, BacTiterGlo (AID 1915).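 Note: potency for reduction of bacterial viability or growth.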 Type of assay: functional, organism-based.

Alkaline phosphatase, placental type, sequence (P05187 whole entry): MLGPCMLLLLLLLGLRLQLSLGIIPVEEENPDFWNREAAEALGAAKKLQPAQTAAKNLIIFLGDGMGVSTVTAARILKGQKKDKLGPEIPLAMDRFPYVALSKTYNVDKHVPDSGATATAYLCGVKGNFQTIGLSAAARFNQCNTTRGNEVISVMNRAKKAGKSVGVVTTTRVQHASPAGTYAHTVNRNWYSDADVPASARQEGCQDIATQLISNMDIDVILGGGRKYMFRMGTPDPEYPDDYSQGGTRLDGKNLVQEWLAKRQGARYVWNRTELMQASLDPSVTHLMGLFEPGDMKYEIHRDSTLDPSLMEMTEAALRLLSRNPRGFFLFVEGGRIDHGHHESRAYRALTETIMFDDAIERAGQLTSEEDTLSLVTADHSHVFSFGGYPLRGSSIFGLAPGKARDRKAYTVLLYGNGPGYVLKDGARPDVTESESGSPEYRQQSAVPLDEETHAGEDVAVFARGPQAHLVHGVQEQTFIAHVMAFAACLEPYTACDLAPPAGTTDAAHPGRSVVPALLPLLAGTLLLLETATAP
Muscarinic acetylcholine receptor M4, sequence (P08485 whole entry): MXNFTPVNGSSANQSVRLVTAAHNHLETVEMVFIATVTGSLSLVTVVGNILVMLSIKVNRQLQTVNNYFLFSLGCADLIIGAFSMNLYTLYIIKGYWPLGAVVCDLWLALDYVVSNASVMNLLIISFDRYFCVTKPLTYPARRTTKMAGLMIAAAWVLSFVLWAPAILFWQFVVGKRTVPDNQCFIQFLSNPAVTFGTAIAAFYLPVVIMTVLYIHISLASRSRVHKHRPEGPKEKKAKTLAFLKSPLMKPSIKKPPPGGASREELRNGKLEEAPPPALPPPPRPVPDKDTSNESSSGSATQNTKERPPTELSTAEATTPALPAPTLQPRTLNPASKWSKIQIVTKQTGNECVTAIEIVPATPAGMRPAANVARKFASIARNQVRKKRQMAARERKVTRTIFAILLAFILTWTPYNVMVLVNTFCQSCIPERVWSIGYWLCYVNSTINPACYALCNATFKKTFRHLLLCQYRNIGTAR
Muscarinic acetylcholine receptor M3, sequence (P20309 whole entry): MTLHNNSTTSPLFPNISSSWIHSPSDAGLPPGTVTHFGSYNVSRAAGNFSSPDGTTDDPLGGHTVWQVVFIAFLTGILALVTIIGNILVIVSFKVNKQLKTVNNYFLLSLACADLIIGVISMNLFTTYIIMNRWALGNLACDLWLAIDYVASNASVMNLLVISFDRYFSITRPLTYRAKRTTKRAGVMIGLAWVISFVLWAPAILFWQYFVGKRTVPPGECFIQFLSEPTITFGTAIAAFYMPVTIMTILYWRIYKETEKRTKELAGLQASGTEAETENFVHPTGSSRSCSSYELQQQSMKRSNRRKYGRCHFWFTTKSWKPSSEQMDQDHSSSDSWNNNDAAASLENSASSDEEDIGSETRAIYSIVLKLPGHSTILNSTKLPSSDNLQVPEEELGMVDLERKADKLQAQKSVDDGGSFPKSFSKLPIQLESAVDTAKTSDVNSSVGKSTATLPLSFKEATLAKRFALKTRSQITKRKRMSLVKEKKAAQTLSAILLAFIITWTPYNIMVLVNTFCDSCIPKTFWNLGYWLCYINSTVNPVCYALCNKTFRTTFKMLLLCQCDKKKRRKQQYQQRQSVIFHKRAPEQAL
Muscarinic acetylcholine receptor M5, sequence (P08912 whole entry): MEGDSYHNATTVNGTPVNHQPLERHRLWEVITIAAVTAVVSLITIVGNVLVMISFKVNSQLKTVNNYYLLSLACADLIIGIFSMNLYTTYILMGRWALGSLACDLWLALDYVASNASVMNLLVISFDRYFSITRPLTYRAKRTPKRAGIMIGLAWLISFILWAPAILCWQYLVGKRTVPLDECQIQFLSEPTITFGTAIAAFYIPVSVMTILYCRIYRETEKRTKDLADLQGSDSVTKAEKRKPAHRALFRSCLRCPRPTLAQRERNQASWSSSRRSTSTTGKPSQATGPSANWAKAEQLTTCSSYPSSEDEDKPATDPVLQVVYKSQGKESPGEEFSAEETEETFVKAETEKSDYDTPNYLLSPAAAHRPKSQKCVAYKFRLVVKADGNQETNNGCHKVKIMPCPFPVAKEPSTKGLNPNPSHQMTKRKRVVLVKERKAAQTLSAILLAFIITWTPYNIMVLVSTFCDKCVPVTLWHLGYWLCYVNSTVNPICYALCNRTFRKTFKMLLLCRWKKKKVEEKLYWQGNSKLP
Genome polyprotein, sequence (P29990 2492-3391 limits assumed): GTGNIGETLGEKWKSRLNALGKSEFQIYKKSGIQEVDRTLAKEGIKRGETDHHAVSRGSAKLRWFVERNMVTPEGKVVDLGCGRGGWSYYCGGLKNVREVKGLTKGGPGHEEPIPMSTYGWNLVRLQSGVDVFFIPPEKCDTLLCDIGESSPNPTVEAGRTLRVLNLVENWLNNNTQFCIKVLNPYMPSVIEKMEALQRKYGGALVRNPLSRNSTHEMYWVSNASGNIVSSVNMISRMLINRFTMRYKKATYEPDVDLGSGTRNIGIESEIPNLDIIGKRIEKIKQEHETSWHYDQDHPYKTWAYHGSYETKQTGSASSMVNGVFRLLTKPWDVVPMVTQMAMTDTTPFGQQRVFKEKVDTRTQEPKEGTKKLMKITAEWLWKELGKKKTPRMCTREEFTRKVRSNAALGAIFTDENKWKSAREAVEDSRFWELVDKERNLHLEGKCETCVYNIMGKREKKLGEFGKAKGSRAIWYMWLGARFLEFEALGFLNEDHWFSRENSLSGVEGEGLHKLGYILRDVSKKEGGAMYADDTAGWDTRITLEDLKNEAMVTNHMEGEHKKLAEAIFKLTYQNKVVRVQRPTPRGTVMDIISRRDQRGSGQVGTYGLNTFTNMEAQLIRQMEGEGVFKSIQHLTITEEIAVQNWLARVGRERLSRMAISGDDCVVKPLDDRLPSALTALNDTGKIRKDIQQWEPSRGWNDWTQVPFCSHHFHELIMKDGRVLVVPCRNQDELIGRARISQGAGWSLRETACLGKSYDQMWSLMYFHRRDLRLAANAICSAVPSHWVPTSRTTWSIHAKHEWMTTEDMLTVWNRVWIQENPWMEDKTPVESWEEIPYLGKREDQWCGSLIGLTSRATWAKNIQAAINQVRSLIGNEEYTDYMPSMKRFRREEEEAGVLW
Procathepsin L, sequence (P07711 whole entry): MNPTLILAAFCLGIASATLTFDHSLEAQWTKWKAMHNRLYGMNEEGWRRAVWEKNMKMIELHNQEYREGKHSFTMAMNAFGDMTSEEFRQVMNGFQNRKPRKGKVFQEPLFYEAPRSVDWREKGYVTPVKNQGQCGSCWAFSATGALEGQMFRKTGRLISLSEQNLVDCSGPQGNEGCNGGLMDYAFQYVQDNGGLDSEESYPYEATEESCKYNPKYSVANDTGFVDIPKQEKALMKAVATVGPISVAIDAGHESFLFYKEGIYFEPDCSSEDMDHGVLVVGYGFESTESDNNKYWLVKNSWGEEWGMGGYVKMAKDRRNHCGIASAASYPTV
Melanin-concentrating hormone receptor 1, sequence (Q99705 whole entry): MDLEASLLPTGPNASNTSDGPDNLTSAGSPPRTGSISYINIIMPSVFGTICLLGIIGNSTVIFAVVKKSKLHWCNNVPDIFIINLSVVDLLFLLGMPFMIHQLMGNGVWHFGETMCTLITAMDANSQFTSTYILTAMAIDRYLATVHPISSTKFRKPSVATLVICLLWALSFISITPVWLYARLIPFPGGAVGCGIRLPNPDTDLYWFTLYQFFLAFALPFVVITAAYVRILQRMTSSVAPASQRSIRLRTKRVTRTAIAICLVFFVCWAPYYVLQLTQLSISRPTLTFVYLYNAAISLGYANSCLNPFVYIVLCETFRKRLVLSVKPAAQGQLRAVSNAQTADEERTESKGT
Muscarinic acetylcholine receptor M1, sequence (P08482 whole entry): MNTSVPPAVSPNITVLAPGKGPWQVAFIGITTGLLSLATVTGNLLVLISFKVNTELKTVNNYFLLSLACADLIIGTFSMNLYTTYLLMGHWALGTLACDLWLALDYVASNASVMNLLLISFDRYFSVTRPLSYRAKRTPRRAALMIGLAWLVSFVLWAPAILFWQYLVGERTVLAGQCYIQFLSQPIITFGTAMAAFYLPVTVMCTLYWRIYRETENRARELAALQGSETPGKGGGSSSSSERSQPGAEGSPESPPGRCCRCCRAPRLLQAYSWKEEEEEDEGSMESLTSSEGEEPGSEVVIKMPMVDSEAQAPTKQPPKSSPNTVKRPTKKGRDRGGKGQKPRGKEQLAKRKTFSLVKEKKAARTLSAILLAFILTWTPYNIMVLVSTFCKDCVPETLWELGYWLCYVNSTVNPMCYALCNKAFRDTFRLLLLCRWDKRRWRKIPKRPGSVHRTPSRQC
Heat shock cognate 71 kDa protein, sequence (P11142 whole entry): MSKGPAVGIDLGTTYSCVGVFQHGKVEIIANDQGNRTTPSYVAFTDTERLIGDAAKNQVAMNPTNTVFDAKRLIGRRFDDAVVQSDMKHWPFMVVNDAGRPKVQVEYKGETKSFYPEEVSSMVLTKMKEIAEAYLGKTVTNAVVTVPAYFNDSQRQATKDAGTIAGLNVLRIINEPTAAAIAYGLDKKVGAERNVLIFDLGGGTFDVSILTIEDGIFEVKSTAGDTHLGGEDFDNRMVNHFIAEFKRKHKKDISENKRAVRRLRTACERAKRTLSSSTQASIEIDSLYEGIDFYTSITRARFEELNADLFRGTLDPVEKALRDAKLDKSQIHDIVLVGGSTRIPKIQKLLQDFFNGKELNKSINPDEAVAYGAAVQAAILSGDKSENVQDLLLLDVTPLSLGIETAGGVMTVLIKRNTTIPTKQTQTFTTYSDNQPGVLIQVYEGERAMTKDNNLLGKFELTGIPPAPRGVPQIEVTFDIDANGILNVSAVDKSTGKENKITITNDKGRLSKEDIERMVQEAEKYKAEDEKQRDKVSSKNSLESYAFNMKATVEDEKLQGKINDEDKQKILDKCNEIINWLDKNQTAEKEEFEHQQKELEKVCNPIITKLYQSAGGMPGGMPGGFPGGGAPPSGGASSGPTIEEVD
Protein Rev, sequence (P05866 whole entry): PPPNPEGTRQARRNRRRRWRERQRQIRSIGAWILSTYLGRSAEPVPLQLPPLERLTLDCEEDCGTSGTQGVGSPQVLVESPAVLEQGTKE

With `Nc1ncnc2c1ncn2[C@@H]1O[C@H](COP(=O)(O)OP(=O)(O)O)[C@@H](O)[C@H]1O` [ADENOSINE DIPHOSPHATE], the IC50 in assay [1] is 0.28 µM (active); in assay [2], > 5 µM (inconclusive).

For `Cc1ccc(C(=O)c2coc3c2C(=O)C(=O)C(Cl)=C3Cl)cc1`, the concentration giving a half-maximal response (EC50) on Bcl-2-like protein 10 was 6.17 µM (active).

On to `Cn1c2ccccc2c2cc(/C=C(\NC(=O)c3ccccc3)C(=O)NCC(=O)O)ccc21`, for which the values for the IC50 (in [3]; against Insulin-degrading enzyme) were > 55.7 µM (not active) and 42.5 µM (not active), respectively.

In the case of `Cc1ccccc1CN1C[C@@H]2C[C@@H](c3c[nH]nc3-c3ccc(F)cc3)N3CCC[C@@]23C1=O`, the half-inhibitory concentration (IC50) in [4] is on record as 25.4 µM (not active).

As to `O=C(NCc1cccnc1)NC1(C(F)(F)F)Oc2ccc(Cl)cc2O1` (centres undefined), the IC50 on Procathepsin L is > 59.6 µM (not active); on Aspartyl aminopeptidase, 1.58 µM (active); in assay [5], 8.54 µM (active).

Regarding `COc1cc2[nH]c(=S)n(CCCC(=O)N3CCN(c4cccc(Cl)c4)CC3)c(=O)c2cc1OC`, at Estrogen receptor, the IC50 is 2.36 µM (not active).

Consider `CCOC(=O)N1CCC(NCCNC(=O)c2ccccc2)CC1`, for which the EC50 in [6] was 21.4 µM (inconclusive); in assay [7], 28 µM (inconclusive); in assay [8], 12.4 µM (inconclusive); in assay [9] it was 64.6 µM (inconclusive); in assay [10], 36.5 µM (inconclusive).

Turning to `CC1=NOC(=O)/C1=C/c1ccc(N(C)C)cc1`, the IC50 at Protein Rev was 2.86 µM (active).

As to `O=C(O)CN1C(=O)/C(=C\c2ccc(N3CCCCC3)o2)SC1=S`, the 50% effective concentration (EC50) in [11] is 12.4 µM (active).

In the case of `CC(C)(C)c1ccc(OCC(=O)NNC(=S)NC(=O)c2ccccc2[N+](=O)[O-])c(Br)c1`, the IC50 in [12] was > 50 µM (active); on Genome polyprotein it was 56 µM (active). In the assay with Vero, the CC50 is > 40 µM (active).

Take `COCc1cc(Sc2c(Cl)cccc2Cl)nc(-c2ccccc2)n1`: the EC50 with Streptococcus [13] is > 500 µM (not active); on Streptokinase A it was 9.31 µM (active); in [14], 8.22 µM (active); with Streptococcus [15] it was > 150 µM (not active).
